From PMC11184559, “Identification and Validation of Compounds Targeting Leishmania major Leucyl-Aminopeptidase M17” (ACS Infectious Diseases, 2024)
Several values for one entry are separate records, joined by “and”; a condition that tells them apart may be missing. Equal values may be shown once.

How the values were obtained:
rLmLAP = rLmLAP (Leishmania major, UniProt Q7KF27); assay: RapidFire-MS aminopeptidase activity assay: inhibition of rLmLAP (LSTVIVR substrate); assay type: biochemical; conditions: for IC50: RapidFire-MS, 5 nM enzyme, 10 μM LSTVIVR, 20 min preincubation, 0.195-100 μM, mean ± standard error (n = 3)
Sequence of rLmLAP (Q7KF27 entry or part of it): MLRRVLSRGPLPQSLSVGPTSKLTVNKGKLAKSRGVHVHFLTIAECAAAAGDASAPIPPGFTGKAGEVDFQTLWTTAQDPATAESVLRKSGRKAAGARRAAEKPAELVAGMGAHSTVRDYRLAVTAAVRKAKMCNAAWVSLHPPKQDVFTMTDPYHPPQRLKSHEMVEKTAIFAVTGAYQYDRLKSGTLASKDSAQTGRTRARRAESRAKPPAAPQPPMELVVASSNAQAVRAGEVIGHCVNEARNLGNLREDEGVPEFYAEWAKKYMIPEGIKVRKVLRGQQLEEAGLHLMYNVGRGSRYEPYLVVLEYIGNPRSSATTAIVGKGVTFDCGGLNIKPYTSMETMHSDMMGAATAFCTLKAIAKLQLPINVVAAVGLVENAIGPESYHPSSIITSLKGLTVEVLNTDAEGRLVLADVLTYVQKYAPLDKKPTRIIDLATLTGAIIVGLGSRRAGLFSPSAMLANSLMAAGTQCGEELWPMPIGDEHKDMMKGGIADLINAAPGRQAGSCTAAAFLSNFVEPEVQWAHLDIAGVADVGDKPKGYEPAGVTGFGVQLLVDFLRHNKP
Procedure: Assays were carried out as previously described,[24] with some differences indicated below. The reaction mix consisted of 0 nM (control) and 30 nM rLmLAP in 1× PBS, pH 7.0, 0.005% (v/v) NP-40, plus 7.5 μL of LSTVIVR substrate peptide in the same buffer. For product quantification, the peak areas of the LSTVIVR peptide were integrated with respect to the internal standard LSTVIVR* peptide. The C-terminal arginine was chosen because this amino acid is amenable to isotopic labeling.[45]
rLmLAP was assayed at 5 nM with 10 μM (1× appKM) of LSTVIVR substrate peptide. The enzyme was preincubated with bestatin or DMSO for 20 min. Bestatin was prepared at 10 concentrations in DMSO, covering the range from 0.39 to 100 μM. […] The remaining experimental conditions were maintained, as described above.
A high-throughput screen was conducted against rLmLAP using 3,383 compounds with known protease inhibitor motifs. The compounds were dispensed onto plates using an ECHO 550 acoustic dispenser (Labcyte, Sunnyvale, CA). The enzyme was assayed at 5 nM with 10 μM (1× appKM) LSTVIVR substrate for 60 min. Before adding the substrate, the enzyme was preincubated with 45 nL of the compounds or DMSO for 20 min. Compounds, dissolved in DMSO, were tested at 30 μM. […] No replicates were performed for each inhibitor in this experiment. The remaining experimental conditions were kept constant as described above. The ActivityBase program from IDBS provider (https://www.idbs.com) was used to process and analyze the data. Selection criteria for potential inhibitors in this screen required an inhibition percentage greater than the mean (calculated from the inhibition percentages of all the inhibitors) plus three standard deviations (SD). All compounds were purchased commercially and are >95% pure by HPLC.
To obtain IC50 data for screen-detected rLmLAP inhibitors at a single concentration, ten-point concentration–response curves were generated for selected inhibitors showing greater than mean ±3 SD inhibition. The curves were prepared in 384-well plates with a maximum concentration of 100 μM and 1:2 serial dilutions in DMSO (0.195–100 μM) using an ECHO 550 acoustic dispenser. All other experimental conditions were as described above for RapidFire-MS optimization. Three replicates of each concentration of inhibitor were evaluated. The IC50 value was calculated by nonlinear fitting of a four-parameter logistic function to the experimental data. Curve fitting and IC50 calculations were performed using IDBS ActivityBase XE version 9.2.0.106. Inhibitory activity was determined using the peak area ratio, calculated as the reaction product (STVIVR) divided by its internal standard (*LSTVIVR). The peak area ratio of the reaction without enzyme was defined as 100% inhibitory activity, and that of the complete reaction mixture was defined as 0% inhibitory activity. At least three replicates were generated for each hit compound.

[1] = system: L. donovani intracellular amastigotes; assay: Leishmania donovani intracellular (intramacrophage) assay, single concentration; assay type: cell-based; conditions: Leishmania donovani, Macrophage, 96 h, intracellular amastigotes in macrophages, Hoechst imaging, read-out: Inhibition of L. donovani proliferation (%)
Procedure: The effect of the compounds selected as inhibitors of rLmLAP on the proliferation of L. donovani amastigotes was evaluated at a concentration of 50 μM. Macrophage cultures (ECACC, catalog number: 88081201) were used as host cells. Parasites were incubated with 4.27× 10^7 macrophages, at a multiplicity of infection (MOI) of 5, at 37 °C with 5% CO2, overnight in DMEM medium supplemented with 4.5 g/L glucose and glutamine and 10% FBS, in a Millicell HY T-600 three-layer culture flask (Merck Millipore, Solna, Sweden). […] Macrophages were incubated for another 24 h in the above conditions with 133 μL of fresh DMEM medium prewarmed at 37 °C and supplemented with 10% FBS to obtain a high count of intracellular amastigotes.
Forty-two hours after macrophage infection, compounds (50 μM, 250 nL in DMSO) were dispensed using LabCyte ECHO into each well of 384-well dark flat bottom plates (Corning, New York, USA). The plates were incubated at 37 °C, 5% CO2, for 4 h (without compounds, with DMSO, to determine the initial level of infection) and for 96 h (with and without compounds).

Compound: CC(C)C[C@H](NC(=O)[C@@H](O)[C@H](N)Cc1ccccc1)C(=O)O [Bestatin, reference compound]
- IC50 (rLmLAP): 6 µM and 6.1 µM

Compound: Cc1cc(C(=O)N(Cc2ccco2)Cc2cc3ccc(Cl)cc3nc2N2CCCC2)n(C)n1 [DDD00092594]
- inhibition at 50 µM [1]: 19.9 ± 1.3%
- IC50 (rLmLAP): 36.3 ± 3.3 µM

Compound: N#CC(=Cc1cn(Cc2ccc(C(=O)O)o2)c2ccccc12)c1ccc(F)cc1 [DDD00092624]
- inhibition at 50 µM [1]: 7 ± 1%
- IC50 (rLmLAP): 35.2 ± 3.2 µM

Compound: N#CC(=Cc1cn(Cc2ccc(C(=O)O)o2)c2ccccc12)c1nc2ccccc2[nH]1 [DDD00092640]
- inhibition at 50 µM [1]: 0%
- IC50 (rLmLAP): 20.2 ± 1.1 µM

Compound: CS(=O)(=O)Nc1cc2ccccc2cc1C(=O)O [DDD00095117]
- inhibition at 50 µM [1]: 0%
- IC50 (rLmLAP): 19 ± 1 µM

Compound: COc1ccc(S(=O)(=O)N2Cc3ccccc3CC2C(=O)O)cc1 (stereo not shown) [DDD00095849]
- inhibition at 50 µM [1]: 12.7 ± 1.5%
- IC50 (rLmLAP): 60 ± 5 µM

Compound: Cc1ccc(C(=O)O)cc1S(=O)(=O)Nc1cccc(C2SCCS2)c1 [DDD00096698]
- inhibition at 50 µM [1]: 0%
- IC50 (rLmLAP): 50 ± 4 µM
- inhibition at 30 µM (rLmLAP; single-point high-throughput screen at 30 μM, read-out: Inhibition of rLmLAP in the screening): ~65%

Compound: O=C(O)c1ccc(-c2nccs2)s1 [DDD00097905]
- inhibition at 50 µM [1]: 0%
- IC50 (rLmLAP): 37.1 ± 3.3 µM
